Data as given in US10670605B2, “Cysteine reactive probes and uses thereof” (The Scripps Research Institute, priority 2015, dated 2020).

Key:
Experiment in all cases: Competitive isoTOP-ABPP, cell lysates
Type in all cases: binding
ACAT1 C126 (P24752) = biological target: T1, ACAT1 C126 (P24752) (Homo sapiens, UniProt P24752); details: 500 μm
T1 sequence (P24752 34-427): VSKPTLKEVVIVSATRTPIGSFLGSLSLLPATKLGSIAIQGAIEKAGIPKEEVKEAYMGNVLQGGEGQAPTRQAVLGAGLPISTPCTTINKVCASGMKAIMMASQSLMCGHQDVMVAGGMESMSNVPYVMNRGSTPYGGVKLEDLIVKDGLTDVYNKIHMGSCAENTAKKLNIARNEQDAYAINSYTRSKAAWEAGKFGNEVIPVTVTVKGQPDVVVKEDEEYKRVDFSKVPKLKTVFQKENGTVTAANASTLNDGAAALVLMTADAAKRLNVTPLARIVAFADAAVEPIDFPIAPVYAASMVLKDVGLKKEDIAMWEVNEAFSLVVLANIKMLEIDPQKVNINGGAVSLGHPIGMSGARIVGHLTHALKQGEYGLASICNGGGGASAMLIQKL

ACAT1 C119 (P24752) = biological target: T2, ACAT1 C119 (P24752) (Homo sapiens, UniProt P24752); details: 500 μm
T2 sequence (P24752 34-427): T1 sequence (P24752 34-427)

USP22 C171 (Q9UPT9) = biological target: T3, USP22 C171 (Q9UPT9) (Homo sapiens, UniProt Q9UPT9); details: 500 μm, in-vitro_ramos
T3 sequence (Q9UPT9 1-525): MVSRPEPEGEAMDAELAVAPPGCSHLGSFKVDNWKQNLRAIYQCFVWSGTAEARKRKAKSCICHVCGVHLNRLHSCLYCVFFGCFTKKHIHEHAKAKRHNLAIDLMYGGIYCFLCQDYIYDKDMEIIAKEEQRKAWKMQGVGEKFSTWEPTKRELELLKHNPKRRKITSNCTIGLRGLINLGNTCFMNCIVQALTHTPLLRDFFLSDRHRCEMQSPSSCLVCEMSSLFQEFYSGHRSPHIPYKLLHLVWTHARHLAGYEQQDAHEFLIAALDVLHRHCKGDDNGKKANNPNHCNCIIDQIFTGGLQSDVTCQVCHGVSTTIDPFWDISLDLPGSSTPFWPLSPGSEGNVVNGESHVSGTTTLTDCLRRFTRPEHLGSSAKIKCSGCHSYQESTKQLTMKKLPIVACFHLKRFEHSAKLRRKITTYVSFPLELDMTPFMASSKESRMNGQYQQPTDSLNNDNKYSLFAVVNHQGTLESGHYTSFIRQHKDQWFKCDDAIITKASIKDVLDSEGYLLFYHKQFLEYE

ADA C75 (P00813) = biological target: T4, ADA C75 (P00813) (Homo sapiens, UniProt P00813); details: 500 μm, in-vitro_ramos
T4 sequence (P00813 1-363): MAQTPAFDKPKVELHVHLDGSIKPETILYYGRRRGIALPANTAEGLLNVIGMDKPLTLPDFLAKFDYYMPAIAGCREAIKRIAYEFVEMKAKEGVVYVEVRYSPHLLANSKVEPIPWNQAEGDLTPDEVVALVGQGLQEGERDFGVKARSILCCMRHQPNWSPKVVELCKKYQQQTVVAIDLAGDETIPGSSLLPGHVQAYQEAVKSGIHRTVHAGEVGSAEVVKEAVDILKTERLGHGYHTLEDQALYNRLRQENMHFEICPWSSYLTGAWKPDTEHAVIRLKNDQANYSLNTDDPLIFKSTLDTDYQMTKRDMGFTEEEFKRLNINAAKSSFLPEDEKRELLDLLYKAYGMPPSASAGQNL

ACAT1 C196 (P24752) = biological target: T5, ACAT1 C196 (P24752) (Homo sapiens, UniProt P24752); details: 500 μm
T5 sequence (P24752 34-427): T1 sequence (P24752 34-427)

UBE2S C118 (Q16763) = biological target: T6, UBE2S C118 (Q16763) (Homo sapiens, UniProt Q16763); details: 500 μm
T6 sequence (Q16763 1-222): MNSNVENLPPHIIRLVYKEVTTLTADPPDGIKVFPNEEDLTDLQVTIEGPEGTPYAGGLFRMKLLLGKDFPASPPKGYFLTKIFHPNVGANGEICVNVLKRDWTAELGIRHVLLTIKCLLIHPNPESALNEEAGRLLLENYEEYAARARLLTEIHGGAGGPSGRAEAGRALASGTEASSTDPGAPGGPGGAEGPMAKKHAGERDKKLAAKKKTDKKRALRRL

| SMILES | isoTOP-ABPP reactivity ratio, P24752_C119 (ACAT1 C119 (P24752); in-vitro_ramos) | isoTOP-ABPP reactivity ratio, P00813_C75 (ADA C75 (P00813)) | isoTOP-ABPP reactivity profile ratio, P24752_C126 (ACAT1 C126 (P24752); in-vitro_ramos_231) | isoTOP-ABPP reactivity profile ratio, P24752_C119 (ACAT1 C119 (P24752); in-vitro_ramos_231) | isoTOP-ABPP reactivity profile ratio, P24752_C196 (ACAT1 C196 (P24752); in-vitro_ramos_231) | isoTOP-ABPP reactivity profile ratio, Q16763_C118 (UBE2S C118 (Q16763); in-vitro_ramos_231) | isoTOP-ABPP reactivity profile ratio, P24752_C119 (ACAT1 C119 (P24752); in-vitro_ramos) | further results |
| --- | --- | --- | --- | --- | --- | --- | --- | --- |
| O=C(CCl)Nc1ccccc1C1CCCCCC1 [compound 35] | 1.0 | 1.1 | – | – | – | – | – | isoTOP-ABPP reactivity ratio, P24752_C126 (ACAT1 C126 (P24752); in-vitro_ramos): 10.4; isoTOP-ABPP reactivity ratio, P24752_C119 (ACAT1 C119 (P24752); in-vitro_ramos_231): 0.9; isoTOP-ABPP reactivity ratio, Q9UPT9_C171 (USP22 C171 (Q9UPT9)): 1.5; isoTOP-ABPP reactivity ratio, P24752_C196 (ACAT1 C196 (P24752); in-vitro_ramos): 1.4; isoTOP-ABPP reactivity ratio, P24752_C196 (ACAT1 C196 (P24752); in-vitro_ramos_231): 0.9 |
| C=CC(=O)N1CCC(c2noc3ccc(F)cc23)CC1 [compound 37] | 0.8 | 0.9 | – | – | – | – | – | isoTOP-ABPP reactivity ratio, P24752_C126 (ACAT1 C126 (P24752); in-vitro_ramos): 0.9; isoTOP-ABPP reactivity ratio, P24752_C196 (ACAT1 C196 (P24752); in-vitro_ramos): 1.0 |
| C=CC(=O)Nc1cc(C)c(Br)cc1C [compound 40] | 0.9 | 0.9 | – | – | – | – | – | isoTOP-ABPP reactivity ratio, P24752_C126 (ACAT1 C126 (P24752); in-vitro_ramos_231): 0.9; isoTOP-ABPP reactivity ratio, P24752_C119 (ACAT1 C119 (P24752); in-vitro_ramos_231): 0.8; isoTOP-ABPP reactivity ratio, Q16763_C118 (UBE2S C118 (Q16763); in-vitro_ramos): 0.8; isoTOP-ABPP reactivity ratio, Q16763_C118 (UBE2S C118 (Q16763); in-vitro_ramos_231): 0.9; isoTOP-ABPP reactivity ratio, P24752_C196 (ACAT1 C196 (P24752); in-vitro_ramos_231): 0.8 |
| CC1CCc2ccccc2N1C(=O)CCl (stereo not shown) [compound 45] | – | – | 20.0 | 12.4 | 20.0 | – | – | – |
| C=CC(=O)N(c1ccccc1)C1CCCCC1 [compound 46] | – | – | 0.9 | 0.8 | 0.9 | 1.0 | – | – |
| O=C(CCl)N1CCc2cc(Br)ccc21 [compound 50] | – | – | 20.0 | 2.1 | 3.9 | 0.8 | – | – |
| O=C(CCl)Nc1cccc2ncccc12 [compound 51] | – | – | 1.0 | 0.8 | 1.1 | – | 0.9 | isoTOP-ABPP reactivity profile ratio, P24752_C126 (ACAT1 C126 (P24752); in-vitro_ramos): 1.2; isoTOP-ABPP reactivity profile ratio, P00813_C75 (ADA C75 (P00813)): 1.0; isoTOP-ABPP reactivity profile ratio, Q16763_C118 (UBE2S C118 (Q16763); in-vitro_ramos): 0.9 |
| O=C(CCl)Nc1ccc(-c2ccccc2)cc1 [compound 52] | – | – | 1.3 | 1.4 | 1.3 | 1.2 | 0.8 | isoTOP-ABPP reactivity profile ratio, P00813_C75 (ADA C75 (P00813)): 1.2; isoTOP-ABPP reactivity profile ratio, P24752_C196 (ACAT1 C196 (P24752); in-vitro_ramos): 1.5 |
| C=CC(=O)N1CCC(Cc2ccccc2)CC1 [compound 53] | – | – | – | 0.9 | 1.2 | 1.0 | 0.7 | isoTOP-ABPP reactivity profile ratio, Q16763_C118 (UBE2S C118 (Q16763); in-vitro_ramos): 0.8; isoTOP-ABPP reactivity profile ratio, P24752_C196 (ACAT1 C196 (P24752); in-vitro_ramos): 0.9 |
